Where a name gives a salt, the structure may show the parent alone.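 Step 1: Grow cells in 96-well plates. Step 2: Expose to compound for 48 hours at 5 concentrations. Step 3: Interpolate endpoints linearly; if unreached, use highest concentration. Here, GI50 denotes the concentration required for 50% inhibition of growth.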 Active and inactive are the calls of the source. No stated cut-off is given here; in the data, active = GI50 up to about 1.1 µM and inactive = higher.
Assays:
Assay in all cases: NCI anticancer screen, dose series, 48 h
K562 = tested on: K562
NCI-H226 = tested on: NCI-H226
CAKI-1 = tested on: CAKI-1
Malme-3M = tested on: Malme-3M
HOP-92 = tested on: HOP-92
SF-539 = tested on: SF-539
SK-MEL-5 = tested on: SK-MEL-5
NCI-H460 = tested on: NCI-H460
HCT-116 = tested on: HCT-116
ACHN = tested on: ACHN
SK-MEL-2 = tested on: SK-MEL-2
SNB-19 = tested on: SNB-19
MDA-N = tested on: MDA-N
OVCAR-3 = tested on: OVCAR-3
IGROV-1 = tested on: IGROV-1
MDA-MB-231 = tested on: MDA-MB-231
Hs-578T = tested on: Hs-578T
SF-268 = tested on: SF-268
HL-60 = tested on: HL-60
NCI-H522 = tested on: NCI-H522

SMILES | GI50 (K562) | GI50 (NCI-H226) | GI50 (CAKI-1) | GI50 (Malme-3M) | GI50 (HOP-92) | GI50 (SF-539) | GI50 (SK-MEL-5) | GI50 (NCI-H460) | GI50 (HCT-116) | GI50 (ACHN) | GI50 (SK-MEL-2) | GI50 (SNB-19) | GI50 (MDA-N) | GI50 (OVCAR-3) | GI50 (IGROV-1) | GI50 (MDA-MB-231) | GI50 (Hs-578T) | GI50 (SF-268) | GI50 (HL-60) | GI50 (NCI-H522)
O=C(O)CCC(NC(=O)c1ccc(Nc2cnc3ccc(C(F)(F)F)cc3n2)cc1)C(=O)O (centres undefined) | > 100 µM (inactive) | > 100 µM (inactive) | > 100 µM (inactive) | > 100 µM (inactive) | > 100 µM (inactive) | > 100 µM (inactive) | > 100 µM (inactive) | > 100 µM (inactive) | > 100 µM (inactive) | > 100 µM (inactive) | > 100 µM (inactive) | > 100 µM (inactive) | > 100 µM (inactive) | > 100 µM (inactive) | > 100 µM (inactive) | > 100 µM (inactive) | 45.9 µM (inactive) | > 100 µM (inactive) | > 100 µM (inactive) | 
O=C(O)C1(Cc2ccc3c(c2)CCC3)Cc2ccccc2C1=O (centres undefined) | 50.5 µM (inactive) | 91.4 µM (inactive) |  | > 100 µM (inactive) | 20.8 µM (inactive) | 49.1 µM (inactive) | 79.4 µM (inactive) | 50.1 µM (inactive) | 39 µM (inactive) | 45.4 µM (inactive) | 46 µM (inactive) | 79.3 µM (inactive) | > 100 µM (inactive) | 54 µM (inactive) | 57.8 µM (inactive) | > 100 µM (inactive) | 47.4 µM (inactive) | 63.8 µM (inactive) | 43.5 µM (inactive) | 
N#CCCNCCN(CCN(C(=O)Nc1ccccc1)c1ccccc1)C(=O)Nc1ccccc1 | 67 µM (inactive) | 54.7 µM (inactive) |  | 23.4 µM (inactive) | 40.6 µM (inactive) |  | 19.9 µM (inactive) | 37.9 µM (inactive) | 21.4 µM (inactive) | 47.2 µM (inactive) | 38.4 µM (inactive) | 83.2 µM (inactive) | 47 µM (inactive) |  | 50.4 µM (inactive) | > 100 µM (inactive) | 59.2 µM (inactive) | 63.5 µM (inactive) | 35.9 µM (inactive) | 24.8 µM (inactive)
C=C(C)[C@@H]1CC[C@]2(C(=O)O)CC[C@]3(C)[C@H](CC[C@@H]4[C@@]5(C)CC[C@H](C(=O)/C=C/c6ccc(O)cc6)C(C)(C)[C@@H]5CC[C@]43C)[C@@H]12 | 3.11 µM (inactive) |  | 2.64 µM (inactive) | 13.5 µM (inactive) | 11.9 µM (inactive) | 3.01 µM (inactive) | 2.55 µM (inactive) | 2.73 µM (inactive) | 2.51 µM (inactive) |  | 16.3 µM (inactive) | 6.92 µM (inactive) | 4.72 µM (inactive) | 3.39 µM (inactive) | 8.17 µM (inactive) | 6.65 µM (inactive) | 4.75 µM (inactive) | 8.11 µM (inactive) | 1.15 µM (inactive) | 3.41 µM (inactive)
Cc1ccc(S(=O)(=O)n2c3ccc(Br)cc3c3nc4ccccc4nc32)cc1 | > 100 µM (inactive) | 0.183 µM (active) | > 100 µM (inactive) |  | > 100 µM (inactive) |  | > 100 µM (inactive) | > 100 µM (inactive) | > 100 µM (inactive) | > 100 µM (inactive) | > 100 µM (inactive) | > 100 µM (inactive) | > 100 µM (inactive) | > 100 µM (inactive) | 0.689 µM (active) | > 100 µM (inactive) | > 100 µM (inactive) | > 100 µM (inactive) |  | 0.649 µM (active)
CC1=CC(=O)/C(=C/Nc2nc(-c3ccc([N+](=O)[O-])cc3)cs2)C(=O)O1 | > 100 µM (inactive) | > 100 µM (inactive) | > 100 µM (inactive) |  | > 100 µM (inactive) | > 100 µM (inactive) | > 100 µM (inactive) | > 100 µM (inactive) | > 100 µM (inactive) | > 100 µM (inactive) | > 100 µM (inactive) | 86.5 µM (inactive) | > 100 µM (inactive) |  | > 100 µM (inactive) | > 100 µM (inactive) | > 100 µM (inactive) | > 100 µM (inactive) | 19.9 µM (inactive) | 31.6 µM (inactive)
C=C(C(=O)OCC)C(=O)OCC | > 100 µM (inactive) | > 100 µM (inactive) | > 100 µM (inactive) | > 100 µM (inactive) | > 100 µM (inactive) | > 100 µM (inactive) | > 100 µM (inactive) | > 100 µM (inactive) | > 100 µM (inactive) | > 100 µM (inactive) | > 100 µM (inactive) | > 100 µM (inactive) | > 100 µM (inactive) | > 100 µM (inactive) | > 100 µM (inactive) | > 100 µM (inactive) | > 100 µM (inactive) | > 100 µM (inactive) |  | > 100 µM (inactive)
CCc1cccc(CC)c1Nc1nc2c(s1)C(=O)c1ccccc1C2=O | 28 µM (inactive) |  | 16.4 µM (inactive) | 16 µM (inactive) | 19.5 µM (inactive) | 24.2 µM (inactive) | 20.7 µM (inactive) | 16.9 µM (inactive) | 16.7 µM (inactive) | 17.6 µM (inactive) | 18.6 µM (inactive) | 17 µM (inactive) | 17.5 µM (inactive) | 13.7 µM (inactive) | 12.2 µM (inactive) | 16.5 µM (inactive) | 22.2 µM (inactive) | 16.9 µM (inactive) | 26.4 µM (inactive) | 23.4 µM (inactive)
Cc1cc(NC(=O)NC(=O)c2ccccc2N(C)C)ccc1Oc1ncc(Br)cn1 | 0.119 µM (active) | 9.27 µM (inactive) |  | 0.425 µM (active) | 1.3 µM (inactive) | 0.267 µM (active) | 0.179 µM (active) | 0.403 µM (active) | 0.439 µM (active) | 3.05 µM (inactive) | 0.733 µM (active) | 0.532 µM (active) | 0.0302 µM (active) | 0.29 µM (active) | 1.46 µM (inactive) | 1.45 µM (inactive) | 0.267 µM (active) | 0.977 µM (active) | 0.073 µM (active) | 0.21 µM (active)
O=C(O)c1cc2ccccc2c(S(=O)(=O)O)c1O | > 100 µM (inactive) |  | > 100 µM (inactive) | > 100 µM (inactive) | > 100 µM (inactive) | > 100 µM (inactive) | > 100 µM (inactive) | > 100 µM (inactive) | > 100 µM (inactive) | > 100 µM (inactive) | > 100 µM (inactive) | > 100 µM (inactive) | > 100 µM (inactive) | > 100 µM (inactive) | > 100 µM (inactive) | > 100 µM (inactive) | > 100 µM (inactive) | > 100 µM (inactive) | > 100 µM (inactive) | > 100 µM (inactive)
O=C(O)c1ccc(P(=O)(O)c2ccc(C(=O)O)cc2Br)c(Br)c1 | > 100 µM (inactive) | > 100 µM (inactive) | > 100 µM (inactive) |  | > 100 µM (inactive) | > 100 µM (inactive) | > 100 µM (inactive) |  | > 100 µM (inactive) |  | > 100 µM (inactive) | > 100 µM (inactive) | > 100 µM (inactive) | > 100 µM (inactive) | > 100 µM (inactive) | > 100 µM (inactive) | > 100 µM (inactive) | > 100 µM (inactive) | > 100 µM (inactive) | > 100 µM (inactive)
OCCN(CO)CO | > 100 µM (inactive) | > 100 µM (inactive) | > 100 µM (inactive) | > 100 µM (inactive) | > 100 µM (inactive) | > 100 µM (inactive) | > 100 µM (inactive) | > 100 µM (inactive) | > 100 µM (inactive) | > 100 µM (inactive) | > 100 µM (inactive) | > 100 µM (inactive) | > 100 µM (inactive) | > 100 µM (inactive) | > 100 µM (inactive) | > 100 µM (inactive) | > 100 µM (inactive) | > 100 µM (inactive) |  | > 100 µM (inactive)
COc1cc(C(=O)/C=C/c2ccc(OCCSCCCCCCCCCCSCCOc3ccc(/C=C/C(=O)c4cc(OC)c(OC)c(OC)c4)cc3)cc2)cc(OC)c1OC | > 100 µM (inactive) |  | > 100 µM (inactive) | > 100 µM (inactive) | > 100 µM (inactive) | > 100 µM (inactive) | > 100 µM (inactive) |  | > 100 µM (inactive) | > 100 µM (inactive) | > 100 µM (inactive) | > 100 µM (inactive) | > 100 µM (inactive) | > 100 µM (inactive) | > 100 µM (inactive) | > 100 µM (inactive) | > 100 µM (inactive) | > 100 µM (inactive) | > 100 µM (inactive) | > 100 µM (inactive)
CCN(CC)CCNc1ccc(C)c2sc3ccccc3c(=O)c12 [LUCANTHONE HYDROCHLORIDE] | 1.97 µM (inactive) | 5.04 µM (inactive) | 2.85 µM (inactive) | 3.84 µM (inactive) |  | 2.75 µM (inactive) | 2.17 µM (inactive) | 1.97 µM (inactive) | 1.91 µM (inactive) | 3.54 µM (inactive) | 3.83 µM (inactive) | 2.54 µM (inactive) | 1.95 µM (inactive) | 6.08 µM (inactive) | 5.42 µM (inactive) | 2.85 µM (inactive) | 2.15 µM (inactive) | 5.81 µM (inactive) | 1.79 µM (inactive) | 2.31 µM (inactive)
O=[N+]([O-])c1ccc(/N=N\c2c(O)ccc3ccccc23)c([N+](=O)[O-])c1 | 19.8 µM (inactive) | > 100 µM (inactive) | > 100 µM (inactive) | > 100 µM (inactive) | > 100 µM (inactive) |  | > 100 µM (inactive) | > 100 µM (inactive) | > 100 µM (inactive) | > 100 µM (inactive) | > 100 µM (inactive) | > 100 µM (inactive) | > 100 µM (inactive) | > 100 µM (inactive) | > 32.7 µM (inactive) | > 48.6 µM (inactive) | > 100 µM (inactive) | > 100 µM (inactive) |  | > 100 µM (inactive)

Reference: ChEMBL document CHEMBL1201862, “PubChem BioAssay data set” (2004)
